Assay results taken from patent US20240180883A1, “TREATMENT OF MIGRAINE” (Allergan Pharmaceuticals International Limited, priority 2020, published 2024).

How the values were obtained:
[1] = cited from earlier work; for liver enzyme levels: clinical trials
Study B: adverse events = details: Treatment B: rifampin 600 mg once daily for 5 days, fasted

## O=C(CN1C(=O)C2(CCCC2)NC[C@H]1c1cc(F)cc(F)c1)Nc1ccc2c(c1)C[C@@]1(C2)C(=O)Nc2ncccc21 [MK-3207]
[1]
  liver enzyme levels: elevated liver enzyme levels were observed

## CO[C@H]1/C=C/O[C@@]2(C)Oc3c(C)c(O)c4c(O)c(c(/C=N/N5CCN(C)CC5)c(O)c4c3C2=O)NC(=O)/C(C)=C\C=C\[C@H](C)[C@H](O)[C@@H](C)[C@@H](O)[C@@H](C)[C@H](OC(C)=O)[C@@H]1C [rifampin, reference compound]
Study B: adverse events
  AEs leading to discontinuation: 0 n (%)
  Any AE: 1 (3.3) n (%)
  Deaths: 0 n (%)
  Dry Mouth: 0 n (%)
  Flatulence: 0 n (%)
  Gastrointestinal Disorders: 0 n (%)
  Headache: 1 (3.3) n (%)
  Nausea: 0 n (%)
  Nervous System Disorders: 1 (3.3) n (%)
  SAEs: 0 n (%)
  TEAEs: 1 (3.3) n (%)
  Treatment related TEAEs: 1 (3.3) n (%)

## O=C(N[C@@H]1CC[C@@H](c2cccc(F)c2F)CN(CC(F)(F)F)C1=O)N1CCC(n2c(=O)[nH]c3ncccc32)CC1 [telcagepant]
[1]
  liver enzyme levels: elevated liver enzyme levels were observed

## NCCCC[C@H](NC(=O)[C@@H](Cc1cc(Br)c(O)c(Br)c1)NC(=O)N1CCC(N2Cc3ccccc3NC2=O)CC1)C(=O)N1CCN(c2ccncc2)CC1 [olcegepant]
[1]; IV formulation
  efficacy in the acute treatment of migraine: efficacious in the acute treatment of migraine
[1]; human, in vivo, po
  oral bioavailability: not orally bioavailable
